Key:
[1] = biological target: PRMT5/MEP50 (Homo sapiens (Human), UniProt O14744); test: PRMT5 Biochemical Assay (PRMT5/MEP50 enzyme assay on peptide substrate, 3H-SAM Flashplate); details: PRMT5/MEP50 4 nM, 3H-SAM 75 nM, peptide 40 nM
Excerpt: S-adenosylmethionine (SAM), S-adenosylhomocysteine (SAH), bicine, KCl, Tween20, dimethylsulfoxide (DMSO), bovine skin gelatin (BSG), and Tris(2-carboxyethyl)phosphine hydrochloride solution (TCEP) were purchased from Sigma-Aldrich at the highest level of purity possible. ^3H-SAM was purchase from American Radiolabeled Chemicals with a specific activity of 80 Ci/mmol. 384-well streptavidin Flashplates were purchased from PerkinElmer.
Peptide representative of human histone H4 residues 1-15 was synthesized with a C-terminal linker-affinity tag motif and a C-terminal amide cap by 21st Century Biochemicals. The peptide was high high-perfomance liquid chromatography (HPLC) purified to greater than 95% purity and confirmed by liquid chromatography mass spectrometry (LC-MS). The sequence was Ac-[…][K-Biot]-amide (SEQ ID NO.:3).
Full-length human PRMT5 (NM_006109.3) transcript variant 1 clone was amplified from a fetal brain cDNA library, incorporating flanking 5′ sequence encoding a FLAG tag ([…]) (SEQ ID NO.:4) fused directly to Ala 2 of PRMT5. Full-length human MEP50 (NM_024102) clone was amplified from a human testis cDNA library incorporating a 5′ sequence encoding a 6-histidine tag (MHHHHHH) (SEQ ID NO.:5) fused directly to Arg 2 of MEP50. The amplified genes were sublconed into pENTR/D/TEV (Life Technologies) and subsequently transferred by Gateway™ attL×attR recombination to pDEST8 baculvirus expression vector (Life Technologies).
Recombinant baculovirus and Baculovirus-Infected Insect Cells (BIIC) were generated according to Bac-to-Bac kit instructions (Life Technologies) and Wasilko, 2006, respectively. Protein over-expression was accomplished by infecting exponentially growing Spodoptera frugiperda (SF9) cell culture at 1.2×10^6 cell/ml with a 5000 fold dilution of BIIC stock. Infections were carried out at 27° C. for 72 hours, harvested by centrifugation, and stored at −80° C. for purification.
Flag-PRMT5/6His-MeP50 was eluted with 300 mM Imidazole in the same buffer. The purity of recovered protein was 87%. Reference: Wasilko, D. J. and S. E. Lee: “TIPS: titerless infected-cells preservation and scale-up” Bioprocess J., 5 (2006), pp. 29-32.
General Procedure for PRMT5/MEP50 Enzyme Assays on Peptide Substrates.
The assays were all performed in a buffer consisting of 20 mM Bicine (pH=7.6), 1 mM TCEP, 0.005% BSG, and 0.002% Tween20, prepared on the day of use. Compounds in 100% DMSO (1 ul) were spotted into a polypropylene 384-well V-bottom plates (Greiner) using a Platemate Plus outfitted with a 384-channel head (Thermo Scientific). DMSO (1 ul) was added to Columns 11, 12, 23, 24, rows A-H for the maximum signal control and 1 ul of SAH, a known product and inhibitor of PRMT5/MEP50, was added to columns 11, 12, 23, 24, rows I-P for the minimum signal control. A cocktail (40 ul) containing the PRMT5/MEP50 enzyme and the peptide was added by Multidrop Combi (Thermo-Fisher). The compounds were allowed to incubate with PRMT5/MEP50 for 30 min at 25 degrees Celsius, then a cocktail (10 ul) containing ^3H-SAM was added to initiate the reaction (final volume=51 ul). The final concentrations of the components were as follows: PRMT5/MEP50 was 4 nM, ^3H-SAM was 75 nM, peptide was 40 nM, SAH in the minimum signal control wells was 100 uM, and the DMSO concentration was 1%. The assays were stopped by the addition of non-radioactive SAM (10 ul) to a final concentration of 600 uM, which dilutes the ^3H-SAM to a level where its incorporation into the peptide substrate is no longer detectable. 50 ul of the reaction in the 384-well polypropylene plate was then transferred to a 384-well Flashplate and the biotinylated peptides were allowed to bind to the streptavidin surface for at least 1 hour before being washed three times with 0.1% Tween20 in a Biotek ELx405 plate washer. […]

[2] = tested on: Z-138 cells; test: Z-138 Proliferation Assay (Cell Titer Glo); format: cell-based; details: Homo sapiens, 120 h, 5 days, top concentration 20 μM
Excerpt: [formula] Z-138 Proliferation Assay
Z-138 suspension cells were purchased from ATCC (American Type Culture Collection, Manassas, Va.). RPMI/Glutamax medium, penicillin-streptomycin, heat inactivated fetal bovine serum were purchased from Life Technologies, Grand Island, N.Y., USA. V-bottom polypropylene 384-well plates were purchased from Greiner Bio-One, Monroe, N.C., USA. Cell culture 384-well white opaque plates were purchased from Perkin Elmer, Waltham, Mass., USA. Cell-Titer Glo® was purchased from Promega Corporation, Madison, Wis., USA. SpectraMax M5 plate reader was purchased from Molecular Devices LLC, Sunnyvale, Calif., USA.
Z-138 suspension cells were maintained in growth medium (RPMI 1640 supplemented with 10% v/v heat inactivated fetal bovine serum and cultured at 37° C. under 5% CO2. Under assay conditions, cells were incubated in assay medium (RPMI 1640 supplemented with 10% v/v heat inactivated fetal bovine serum and 100 units/mL penicillin-streptomycin) at 37° C. under 5% CO2.
For the assessment of the effect of compounds on the proliferation of the Z-138 cell line, exponentially growing cells were plated in 384-well white opaque plates at a density of 10,000 cells/ml in a final volume of 50 μl of assay medium. A compound source plate was prepared by performing triplicate nine-point 3-fold serial dilutions in DMSO, beginning at 10 mM (final top concentration of compound in the assay was 20 μM and the DMSO was 0.2%). A 100 nL aliquot from the compound stock plate was added to its respective well in the cell plate. […] After addition of compounds, assay plates were incubated for 5 days at 37° C., 5% CO2, relative humidity >90%. Cell viability was measured by quantitation of ATP present in the cell cultures, adding 35 μl of Cell Titer Glo® reagent to the cell plates. Luminescence was read in the SpectraMax M5 microplate reader. The concentration of compound inhibiting cell viability by 50% was determined using a 4-parametric fit of the normalized dose response curves.

Chain of PRMT5/MEP50 (O14744 other isoform, or with tags, fused parts or gaps): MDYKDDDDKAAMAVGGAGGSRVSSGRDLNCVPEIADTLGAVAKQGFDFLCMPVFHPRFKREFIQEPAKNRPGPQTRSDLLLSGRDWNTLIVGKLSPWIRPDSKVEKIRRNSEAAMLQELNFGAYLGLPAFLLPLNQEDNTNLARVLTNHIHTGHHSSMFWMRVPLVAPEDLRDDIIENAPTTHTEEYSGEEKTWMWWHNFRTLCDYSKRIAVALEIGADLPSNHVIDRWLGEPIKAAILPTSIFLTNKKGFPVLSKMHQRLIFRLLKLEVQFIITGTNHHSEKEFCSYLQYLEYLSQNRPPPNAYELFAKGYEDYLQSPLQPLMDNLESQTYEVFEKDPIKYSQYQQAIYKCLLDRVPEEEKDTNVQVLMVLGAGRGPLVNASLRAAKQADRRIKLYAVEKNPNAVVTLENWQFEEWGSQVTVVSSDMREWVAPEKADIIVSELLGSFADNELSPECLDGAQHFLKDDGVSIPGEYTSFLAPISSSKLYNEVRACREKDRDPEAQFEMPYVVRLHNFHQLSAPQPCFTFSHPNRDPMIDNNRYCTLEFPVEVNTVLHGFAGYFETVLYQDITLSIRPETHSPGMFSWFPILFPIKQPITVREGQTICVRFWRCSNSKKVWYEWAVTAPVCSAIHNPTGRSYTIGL
Chain of PRMT5/MEP50 (Q9BQA1 other isoform, or with tags, fused parts or gaps partner): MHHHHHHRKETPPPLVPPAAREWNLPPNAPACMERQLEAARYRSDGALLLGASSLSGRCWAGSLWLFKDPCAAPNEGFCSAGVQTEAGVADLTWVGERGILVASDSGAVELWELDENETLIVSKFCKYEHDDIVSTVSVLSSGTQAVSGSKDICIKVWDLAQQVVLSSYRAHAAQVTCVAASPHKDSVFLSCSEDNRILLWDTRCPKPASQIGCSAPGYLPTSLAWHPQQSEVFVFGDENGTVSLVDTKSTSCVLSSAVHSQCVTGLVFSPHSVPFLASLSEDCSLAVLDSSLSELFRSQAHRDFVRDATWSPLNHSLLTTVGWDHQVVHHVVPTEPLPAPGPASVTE

Compound | IC50 [1] | EC50 [2]
O=C1CN(c2cccc3cccnc23)CCN1CC(O)CN1CCc2ccccc2C1 (stereo not shown) [Compound 4, 1-(3-(3,4-dihydroisoquinolin-2(1H)-yl)-2-hydroxypropyl)-4-(quinolin-8-yl)piperazin-2-one] | < 0.1 µM | 1 to 10 µM
O=C1CN(c2cccc(F)c2)CCN1CC(O)CN1CCc2ccccc2C1 (stereo not shown) [Compound 6] | < 0.1 µM | > 20 µM
O=C1CN(c2ccc(Cl)cc2)CCN1CC(O)CN1CCc2ccccc2C1 (stereo not shown) [Compound 7, 4-(4-chlorophenyl)-1-(3-(3,4-dihydroisoquinolin-2(1H)-yl)-2-hydroxypropyl)piperazin-2-one] | < 0.1 µM | 10 to 50 µM
O=C1CN(c2ccccc2Cl)CCN1CC(O)CN1CCc2ccccc2C1 (stereo not shown) [Compound 9] | 0.101 to 1 µM | 10 to 50 µM
O=C1Cc2ccccc2N1CC(O)CN1CCc2ccccc2C1 (stereo not shown) [Compound 1, 1-(3-(3,4-dihydroisoquinolin-2(1H)-yl)-2-hydroxypropyl)indolin-2-one] | 0.101 to 1 µM | > 20 µM
O=C1CN(c2cncc(N3CCOCC3)c2)CCN1CC(O)CN1CCc2ccccc2C1 (stereo not shown) [Compound 8, 1-(3-(3,4-dihydroisoquinolin-2(1H)-yl)-2-hydroxypropyl)-4-(5-morpholinopyridin-3-yl)piperazin-2-one] | < 0.1 µM | 1 to 10 µM

Continued, in another order:

IC50 [1] | Compound | EC50 [2]
0.101 to 1 µM | CN(C)c1ccccc1N1CCN(C[C@H](O)CN2CCc3ccccc3C2)C(=O)C1 [Compound 29] | 10 to 50 µM
0.101 to 1 µM | O=c1cc(Nc2ccccc2)ccn1C[C@H](O)CN1CCc2ccccc2C1 [Compound 19, (R)-1-(3-(3,4-dihydroisoquinolin-2(1H)-yl)-2-hydroxypropyl)-4-(phenylamino)pyridin-2(1H)-one] | > 20 µM
0.101 to 1 µM | Cc1ccc(N2CCN(CC(O)CN3CCc4ccccc4C3)C(=O)C2)cc1 (stereo not shown) [Compound 15, 1-(3-(3,4-dihydroisoquinolin-2(1H)-yl)-2-hydroxypropyl)-4-(p-tolyl)piperazin-2-one] | > 20 µM
0.101 to 1 µM | O=C1COc2ccccc2N1CC(O)CN1CCc2ccccc2C1 (stereo not shown) [Compound 31, 4-(3-(3,4-dihydroisoquinolin-2(1H)-yl)-2-hydroxypropyl)-2H-benzo[b][1,4]oxazin-3(4H)-one] | > 20 µM
< 0.1 µM | O=C1CN(c2cccc(N3CCOCC3)c2)CCN1CC(O)CN1CCc2ccccc2C1 (stereo not shown) [Compound 12, 1-(3-(3,4-dihydroisoquinolin-2(1H)-yl)-2-hydroxypropyl)-4-(3-morpholinophenyl)piperazin-2-one] | 1 to 10 µM
